# Data published in US11466007B2, “Substituted lactams showing serotonin 5-HT receptor activity” (Sumitomo Pharma Co., Ltd., priority 2018, dated 2022).
# Like-named read-outs stand apart in the source and are kept apart here.
# Tests used:
# [1] = Test 4: metabolic stability test in human hepatic microsome; format: in vitro ADME; settings: 0.1 mg/mL microsome, 0.1 μmol/L compound, NADPH, 37° C., 30 minutes
# Description: Test 4: Metabolic Stability Test in Human Hepatic Microsome
# The stability of the present compound in human hepatic microsome metabolism was evaluated as mentioned below. Human hepatic microsome was obtained from Xenontech. Human hepatic microsome, NADPH, and each test compound were mixed in 25 mmol/L phosphate buffer solution (pH 7.4) to reach the following concentrations as shown below, and the mixture was incubated at 37° C. for 30 minutes. • Human hepatic microsome: 0.1 mg/mL • NAPDH: 3.2 mmol/L • Test compound: 0.1 μmol/L
# The residual ratio of the test compound in each sample after 30 minutes was measured by LC-MS, and the metabolic stability in human hepatic microsome was calculated from the following formula. Metabolic stability in human hepatic microsome (mL/min/mg protein)=−LN(residual ratio)/30/0.1
# human D2 receptor = human D2 receptor (Homo sapiens (Human), UniProt P14416); assay: Test 1: binding activity for human D2 receptor ([3H]Spiperone); settings: for D2 Ki/5-HT1A Ki: ratio of D2 Ki to 5-HT1A Ki; for Ki: CHO cell membrane fraction, [3H]Spiperone; for D2 Ki/5-HT2A Ki: ratio of D2 Ki to 5-HT2A Ki
# Description: (§1) Test 1: Evaluation of Binding Activity for Human 5-HT1A Receptor, Human 5-HT2A Receptor, and Human D2 Receptor
# (§2) Binding affinity of the present compound for human 5-HT1A receptor, human 5-HT2A receptor, and human D2 receptor was measured by the following procedures.
# (§3) Each mixture was incubated at room temperature for 60 minutes. Then, the mixture was added quickly on a glassfiber filter plate (Multiscreen FB, Millipore, Inc.) coated with 0.3% aqueous polyethylenimine, and vacuum-filtered. Radioactivity remaining on the filter was measured with a liquid scintillation counter (PerkinElmer, Inc.). Binding inhibition rate was calculated from the following formula.
# (§4) Ki of each compound was calculated from the following formula. Binding inhibition constant (Ki)=IC50/(1+S/Kd) wherein S is concentration of ligand; Kd is a binding dissociation constant of ligand to membrane, which is calculated from a saturated binding experiment conducted with the same cell membrane. A small Ki value means strong binding ability to a receptor.
# P-gp (MDR1) = P-gp (MDR1) (Homo sapiens (Human), UniProt P08183); assay: Test 9: P-gp substrate property (NFR, MDCKII and MDR1-MDCKII cells); format: in vitro ADME; settings: ratio of Papp B-A/Papp A-B in MDR1-MDCKII cells to that in MDCKII cells
# Description: Evaluation test for binding was carried out as follows with the CHO cell membrane fraction in which human target receptor was expressed. […] Each mixture was incubated at room temperature, added quickly on a glassfiber filter plate (Multiscreen FB, Millipore, Inc.), and vacuum-filtered. Radioactivity remaining on the filter was measured with a liquid scintillation counter (PerkinElmer, Inc.). Binding inhibition rate was calculated from the following formula.
# NFR (Net Flux Ratio), which is an index of P-gp substrate property, can be calculated as follows. MDCKII (Madin-Darby canine kidney strain II) cells and MDR1-MDCKII cells in which MDR1 (multidrug resistance protein 1) was overexpressed were used to measure an apparent permeability coefficient (Papp A-B) from lumen (A) to basement membrane (B) and an apparent permeability coefficient (Papp B-A) from basement membrane (B) to lumen (A) of both MDCKII cells and MDR1-MDCKII cells. NFR (Net Flux Ratio) was calculated from the ratio between Ratio (Papp B-A/Papp A-B) of an apparent permeability coefficient of MDR1-MDCKII cells and Ratio of an apparent permeability coefficient of MDCKII cells.
# human 5-HT1A receptor [2] = biological target: T1, human 5-HT1A receptor (Homo sapiens (Human), UniProt P08908); assay: Test 2: agonist activity for human 5-HT1A receptor ([35S]GTPγS binding); format: biochemical
# Description: Test 2: Evaluation of Agonist Activity for Human 5-HT1A Receptor
# CHO cell membrane fraction in which human 5-HT1A receptor was expressed as used in Test 1 was purchased. To a buffer containing guanosine diphosphate were added a test compound dissolved in DMSO, each receptor membrane sample diluted with buffer, and [^35S] Guanosine 5′-O-[gamma-thio]triphosphate (GTPγS). The mixture was incubated at room temperature for 60 minutes. Then, the mixture was added quickly on a glassfiber filter plate (Multiscreen FB, Millipore, Inc.), and vacuum-filtered. Radioactivity remaining on the […] was measured with a liquid scintillation counter. Agonist activity was calculated from the following formula.
# human 5-HT2A receptor = human 5-HT2A receptor (Homo sapiens (Human), UniProt P28223); assay: Test 1: binding activity for human 5-HT2A receptor ([3H]Ketanserin); settings: CHO cell membrane fraction
# Description: as §1, §2, §3, §4
# human 5-HT1A receptor [3] = biological target: T1, human 5-HT1A receptor; assay: Test 1: binding activity for human 5-HT1A receptor ([3H]8-OH-DPAT); settings: CHO cell membrane fraction
# Description: as §1, §2, §3
# as §4, with “IC50 value was calculated by Hill analysis (Physiology, 1910, 40, 190-200). Ki of” for “Ki of”
# hERG channel = hERG channel (Homo sapiens (Human), UniProt Q12809); assay: Test 6-1: inhibitory activity for hERG channel (auto patch clamp, Qpatch); format: cell-based; settings: for IC50: hERG-CHO cells, whole cell patch clamp, Qpatch, read-out: hERG inhibition IC50
# Description: Test 6-1: Evaluation of Inhibitory Activity for hERG Channel
# Inhibitory activity of the present compound for hERG channel was measured by whole cell patch clamp method with an auto patch clamp system using CHO cells in which hERG channel involved in human rapidly activating delayed rectifier potassium current (IKr) was forcibly expressed.
# hERG-CHO cells purchased from ChanTest Cop. were cultured in a CO2 incubator at 37° C., and dissociated from a flask with trypsin shortly before the measurement of hERG current, to prepare a cell suspension.
# Extracellular and intracellular fluid used in the measurement were prepared as follows.
# Extracellular fluid: 2 mmol/L CaCl2, 1 mmol/L MgCl2, 10 mmol/L HEPES, 4 mmol/L KCl, 145 mmol/L NaCl, 10 mmol/L Glucose
# Intracellular fluid: 5.4 mmol/L CaCl2, 1.8 mmol/L MgCl2, 10 mmol/L HEPES, 31 mmol/L KOH, 10 mmol/L EGTA, 120 mmol/L KCl, 4 mmol/L Na2-ATP
# Test compound solution: Test compound was dissolved in DMSO to reach the concentration of 2 mmol/L or 20 mmol/L, in order to prepare a test compound solution. […] (Measurement of Current Value and Data Analysis)
# The cell suspension, the extracellular fluid, the intracellular fluid, and the measurement plate were set in the auto patch clamp system, and hERG current was measured by whole cell patch clamp method. […] Each pulse interval was 15 seconds. The data analysis was carried out with Qpatch Assay Software (Biolin Scientific). The test was carried out by applying incrementally 4 concentrations of each test compound, and the average of the maximum peak tail currents which were obtained from the last 3 stimulations in each concentration was determined as the evaluated data. Based on the current inhibition rate for a pre-applied current at each concentration of each test compound, IC50 value was calculated by Hill equation with the software.
# [4] = Test 10: intracerebral transferability of rats (Kp,uu,brain); format: in vivo, SD or WKY rats; settings: rat, brain and plasma, unbound drug concentration ratio brain/plasma, s.c. or oral, 0.5, 1 or 2 hours
# Description: Test 10: Evaluation of Intracerebral Transferability (Test for Intracerebral Transferability of Rats)
# In this test, intracerebral transferability of the present compounds was evaluated by the following method. The present compounds were subcutaneously administered as a solution in saline, or orally administered as a suspension in methyl cellulose to 7-week-old SD or WKY rats. Plasma and brain were collected on 0.5 hours, 1 hour, or 2 hours after the administration to measure the drug concentrations in plasma and brain by LC-MS.
# Binding rates of the present compound to plasma and brain protein were measured by equilibrium dialysis method.
# Kp,uu,brain (unbound drug concentration ratio between brain/plasma) can be calculated by applying the compound concentrations in plasma and brain and the binding rates to plasma and brain protein obtained from the above test into the following formula. Kp,uu,brain=(Compound concentration in brain×(100−Binding rate to brain protein (%))/100)/(Compound concentration in plasma×(100−Binding rate to plasma protein (%))/100)
# [5] = agonist activity in the presence of 10 μM compound, relative to 100 μmol/L 5-HT
# Chain of human D2 receptor (P14416 whole entry): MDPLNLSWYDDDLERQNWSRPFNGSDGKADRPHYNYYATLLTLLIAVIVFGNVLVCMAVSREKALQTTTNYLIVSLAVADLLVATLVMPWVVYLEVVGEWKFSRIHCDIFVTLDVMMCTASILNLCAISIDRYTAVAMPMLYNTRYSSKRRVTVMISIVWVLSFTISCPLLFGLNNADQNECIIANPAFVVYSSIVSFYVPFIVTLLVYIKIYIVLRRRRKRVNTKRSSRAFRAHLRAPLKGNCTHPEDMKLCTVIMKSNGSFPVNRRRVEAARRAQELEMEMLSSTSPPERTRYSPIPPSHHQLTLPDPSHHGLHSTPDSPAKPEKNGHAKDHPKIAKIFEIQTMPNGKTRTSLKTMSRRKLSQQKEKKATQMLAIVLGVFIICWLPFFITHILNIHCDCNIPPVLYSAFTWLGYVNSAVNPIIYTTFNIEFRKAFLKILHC
# Chain of hERG channel (Q12809 whole entry): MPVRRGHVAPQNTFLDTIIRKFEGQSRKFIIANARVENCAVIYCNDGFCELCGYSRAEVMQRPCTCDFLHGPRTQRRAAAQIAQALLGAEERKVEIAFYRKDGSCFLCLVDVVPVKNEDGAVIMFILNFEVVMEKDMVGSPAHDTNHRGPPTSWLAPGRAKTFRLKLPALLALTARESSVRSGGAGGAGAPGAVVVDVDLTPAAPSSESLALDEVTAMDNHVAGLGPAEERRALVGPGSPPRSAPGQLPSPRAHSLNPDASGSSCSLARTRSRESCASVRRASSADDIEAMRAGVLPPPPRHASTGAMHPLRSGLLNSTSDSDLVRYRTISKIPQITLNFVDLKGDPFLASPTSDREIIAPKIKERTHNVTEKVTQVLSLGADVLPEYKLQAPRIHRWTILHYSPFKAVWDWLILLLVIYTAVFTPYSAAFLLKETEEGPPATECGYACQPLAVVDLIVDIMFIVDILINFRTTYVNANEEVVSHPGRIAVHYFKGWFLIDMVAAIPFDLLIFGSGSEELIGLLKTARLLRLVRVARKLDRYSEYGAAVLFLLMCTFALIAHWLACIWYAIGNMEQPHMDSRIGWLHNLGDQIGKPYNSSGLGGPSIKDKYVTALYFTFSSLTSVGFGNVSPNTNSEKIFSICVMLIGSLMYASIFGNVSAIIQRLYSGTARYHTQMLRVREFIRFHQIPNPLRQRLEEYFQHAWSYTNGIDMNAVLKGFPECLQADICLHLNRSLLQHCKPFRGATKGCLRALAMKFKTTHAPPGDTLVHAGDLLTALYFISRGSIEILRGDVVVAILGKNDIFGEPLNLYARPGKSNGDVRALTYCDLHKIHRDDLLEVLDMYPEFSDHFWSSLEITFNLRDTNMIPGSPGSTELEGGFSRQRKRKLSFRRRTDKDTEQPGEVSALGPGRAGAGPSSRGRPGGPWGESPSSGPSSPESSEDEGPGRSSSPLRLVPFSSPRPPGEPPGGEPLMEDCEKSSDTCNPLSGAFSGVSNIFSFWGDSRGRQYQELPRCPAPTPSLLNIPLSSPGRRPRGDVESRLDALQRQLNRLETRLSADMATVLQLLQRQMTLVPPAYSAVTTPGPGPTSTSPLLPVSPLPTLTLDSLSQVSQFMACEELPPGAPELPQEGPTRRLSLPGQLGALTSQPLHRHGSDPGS
# T1 sequence (P08908 whole entry): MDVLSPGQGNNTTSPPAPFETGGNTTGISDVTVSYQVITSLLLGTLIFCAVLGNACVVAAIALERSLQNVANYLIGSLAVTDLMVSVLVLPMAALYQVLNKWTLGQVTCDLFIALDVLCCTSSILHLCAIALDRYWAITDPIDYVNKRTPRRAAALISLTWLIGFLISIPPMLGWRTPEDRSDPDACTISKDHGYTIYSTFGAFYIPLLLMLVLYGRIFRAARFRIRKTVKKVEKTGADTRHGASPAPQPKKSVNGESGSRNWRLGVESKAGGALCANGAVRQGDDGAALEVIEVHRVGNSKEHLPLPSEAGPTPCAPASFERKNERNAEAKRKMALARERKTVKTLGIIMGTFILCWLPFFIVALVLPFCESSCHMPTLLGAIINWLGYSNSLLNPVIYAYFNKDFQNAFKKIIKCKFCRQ
# Chain of P-gp (MDR1) (P08183 whole entry, species assumed): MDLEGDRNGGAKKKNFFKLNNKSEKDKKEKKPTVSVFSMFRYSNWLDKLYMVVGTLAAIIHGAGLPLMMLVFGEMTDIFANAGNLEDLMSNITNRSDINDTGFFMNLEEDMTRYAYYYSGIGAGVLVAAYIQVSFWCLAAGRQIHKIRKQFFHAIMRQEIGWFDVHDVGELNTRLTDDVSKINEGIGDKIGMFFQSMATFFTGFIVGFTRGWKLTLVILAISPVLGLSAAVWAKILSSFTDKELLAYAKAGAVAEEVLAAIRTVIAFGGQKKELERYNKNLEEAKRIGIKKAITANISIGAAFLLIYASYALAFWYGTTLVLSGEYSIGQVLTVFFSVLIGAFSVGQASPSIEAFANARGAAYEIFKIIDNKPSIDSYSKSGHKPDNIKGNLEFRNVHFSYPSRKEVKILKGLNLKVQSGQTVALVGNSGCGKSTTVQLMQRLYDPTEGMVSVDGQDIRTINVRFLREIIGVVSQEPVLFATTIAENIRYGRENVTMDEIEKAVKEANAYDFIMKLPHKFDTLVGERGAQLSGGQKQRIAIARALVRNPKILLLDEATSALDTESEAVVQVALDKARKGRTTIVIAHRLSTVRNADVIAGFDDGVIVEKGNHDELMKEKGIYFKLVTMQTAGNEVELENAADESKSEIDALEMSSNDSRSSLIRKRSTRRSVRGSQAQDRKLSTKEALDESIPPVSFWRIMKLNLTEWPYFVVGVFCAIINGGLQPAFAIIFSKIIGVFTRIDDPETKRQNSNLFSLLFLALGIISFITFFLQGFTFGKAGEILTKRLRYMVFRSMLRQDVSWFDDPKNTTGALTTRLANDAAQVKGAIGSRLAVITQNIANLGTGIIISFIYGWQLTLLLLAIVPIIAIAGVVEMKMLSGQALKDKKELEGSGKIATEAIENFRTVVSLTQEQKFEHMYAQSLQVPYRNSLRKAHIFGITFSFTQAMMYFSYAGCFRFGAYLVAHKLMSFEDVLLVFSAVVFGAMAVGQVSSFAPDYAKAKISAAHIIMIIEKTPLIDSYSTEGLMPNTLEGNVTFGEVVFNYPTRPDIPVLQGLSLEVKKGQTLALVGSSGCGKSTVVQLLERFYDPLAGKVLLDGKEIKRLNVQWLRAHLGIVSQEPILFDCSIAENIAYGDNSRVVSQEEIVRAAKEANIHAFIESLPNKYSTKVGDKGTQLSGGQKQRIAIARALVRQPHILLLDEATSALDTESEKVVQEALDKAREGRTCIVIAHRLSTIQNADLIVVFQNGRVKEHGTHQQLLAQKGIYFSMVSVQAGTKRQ
# Chain of human 5-HT2A receptor (P28223 whole entry): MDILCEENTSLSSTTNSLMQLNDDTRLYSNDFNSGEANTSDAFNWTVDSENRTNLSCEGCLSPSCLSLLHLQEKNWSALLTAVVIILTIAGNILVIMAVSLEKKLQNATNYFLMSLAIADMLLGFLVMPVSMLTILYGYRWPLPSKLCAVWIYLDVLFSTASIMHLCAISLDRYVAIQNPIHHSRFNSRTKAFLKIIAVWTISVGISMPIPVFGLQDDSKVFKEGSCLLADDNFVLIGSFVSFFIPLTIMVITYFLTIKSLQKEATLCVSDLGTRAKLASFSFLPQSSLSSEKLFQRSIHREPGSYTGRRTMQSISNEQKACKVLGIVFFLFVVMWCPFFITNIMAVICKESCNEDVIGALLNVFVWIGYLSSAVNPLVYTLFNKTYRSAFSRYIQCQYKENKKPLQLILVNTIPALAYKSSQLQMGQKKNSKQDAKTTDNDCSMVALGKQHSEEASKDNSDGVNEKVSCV
SMILES,Metabolic stability in human hepatic microsome [1] [mL/min/mg protein],D2 Ki/5-HT1A Ki (human D2 receptor),Ki (human D2 receptor) [nM],Ki (human 5-HT1A receptor [3]) [nM],other results
Cn1ccc2c1CCN(CCN1CCC(c3noc4ccccc34)CC1)C2=O [Example 60],0.018,19,–,–,NFR (Net Flux Ratio) (P-gp (MDR1)): 1.5
O=C1c2cnccc2CCN1CCN1CCC(c2noc3ccccc23)CC1 [Example 13],<0.01,–,–,–,Emax at 10 µM (human 5-HT1A receptor [2]; [5]): 56%; Ki (human 5-HT2A receptor): 8.4 nM
Cn1nc(Br)c2c1CCN(CCN1CCN(c3nsc4ccccc34)CC1)C2=O [Example 69],–,–,360,10.4,Emax at 10 µM (human 5-HT1A receptor [2]; [5]): 45%
"O=C1c2cnc(OC3COC3)cc2CCN1CCN1CCN(c2nsc3ccccc23)CC1 [Example 111, 2-{2-[4-(1,2-Benzoisothiazol-3-yl)piperazin-1-yl]ethyl}-6-[(oxetan-3-yl)oxy]-3,4-dihydro-2,7-naphthyridin-1(2H)-one]",–,–,–,–,D2 Ki/5-HT2A Ki (human D2 receptor): 530
COc1ccc2onc(C3CCN(CCN4CCc5cccnc5C4=O)CC3)c2c1 [Example 142],–,–,–,–,D2 Ki/5-HT2A Ki (human D2 receptor): >61.0
Cn1ncc2c1C(=O)N(CCN1CCN(c3nsc4ccccc34)CC1)CC2 [Example 59],–,63,–,–,NFR (Net Flux Ratio) (P-gp (MDR1)): 1.1
Cc1ccc2c(C3CCN(CCn4ccc5cccnc5c4=O)CC3)noc2c1 [Example 118],–,3.8,276,73.1,D2 Ki/5-HT2A Ki (human D2 receptor): 27.6; Emax at 10 µM (human 5-HT1A receptor [2]; [5]): 5%; Ki (human 5-HT2A receptor): 10 nM
Cn1cnc2c1CCN(CCN1CCN(c3nsc4ccccc34)CC1)C2=O [Example 54],<0.01,–,–,–,NFR (Net Flux Ratio) (P-gp (MDR1)): 6.6
"Cc1nc2c(o1)C(=O)N(CCN1CCC(c3noc4ccccc34)CC1)CC2 [Example 35, 5-{2-[4-(1,2-Benzoisoxazol-3-yl)piperidin-1-yl]ethyl}-2-methyl-6,7-dihydro[1,3]oxazolo[5,4-c]pyridin-4(5H)-one]",<0.01,–,–,–,Kp uu at 2 h [4]: 1.44
Cc1cc2c(cn1)C(=O)N(CCN1CCC(c3noc4ccccc34)CC1)CC21CC1 [Example 21],0.323,–,2120,8.62,"IC50 (hERG channel; human, CHO cells expressing hERG channel): 8000 nM; Emax at 10 µM (human 5-HT1A receptor [2]; [5]): 59%"
COc1ncc2c(n1)CCN(CCN1CCN(c3noc4ccccc34)CC1)C2=O [Example 179],<0.05,>35.3,> 10000,283,IC50 (hERG channel): > 10000 nM; hERG inhibition IC50 (nmol/L)/5-HT1A Ki (nmol/L) (hERG channel; ratio of hERG IC50 to 5-HT1A Ki): >35; hERG inhibition IC50 (nmol/L)/5-HT2A Ki (nmol/L) (hERG channel; ratio of hERG IC50 to 5-HT2A Ki): >438; D2 Ki/5-HT2A Ki (human D2 receptor): >437.6; Ki (human 5-HT2A receptor): 22.9 nM
COc1cc2c(cn1)C(=O)N(CCN1CCC(c3noc4ccccc34)CC1)CC2 [Example 20],0.091,–,1890,0.77,5-HT1A agonist activity Emax (human 5-HT1A receptor [2]; [5]): 52%

# Further lines, with some results ahead:
Metabolic stability in human hepatic microsome [1] [mL/min/mg protein],D2 Ki/5-HT1A Ki (human D2 receptor),Ki (human D2 receptor) [nM],Ki (human 5-HT1A receptor [3]) [nM],SMILES,other results
<0.05,5.8,–,–,Cc1cncc2c1CCN(CCN1CCN(c3noc4ccccc34)CC1)C2=O [Example 137],–
<0.05,–,–,–,O=C1c2nc(Cl)ccc2CCN1CCN1CCC(c2noc3ccccc23)CC1 [Example 146],NFR (Net Flux Ratio) (P-gp (MDR1)): 2.3
0.019,9,–,–,"Cn1ncc2c1C(=O)N(CCN1CCC(c3noc4ccccc34)CC1)CC2 [Example 96, 6-{2-[4-(1,2-Benzoisoxazol-3-yl)piperidin-1-yl]ethyl}-1-methyl-1,4,5,6-tetrahydro-7H-pyrazolo[3,4-c]pyridin-7-one]",D2 Ki/5-HT2A Ki (human D2 receptor): 14
<0.05,–,–,–,CCc1ccc2c(n1)C(=O)N(CCN1CCC(c3noc4ccccc34)CC1)CC2 [Example 185],NFR (Net Flux Ratio) (P-gp (MDR1)): 2.4
0.095,–,1280,16.5,COc1ccc2c(n1)C(=O)N(CCN1CCN(c3noc4ccccc34)CC1)CC2 [Example 186],"IC50 (hERG channel): 2000 nM; EC50 (human 5-HT1A receptor [2]; [35S]GTPγS binding, CHO cell membrane fraction expressing human 5-HT1A receptor): 97 nM; Emax at 10 µM (human 5-HT1A receptor [2]; [5]): 39%"
–,17,–,–,"Cn1cnc2c1CCCN(CCN1CCC(c3noc4ccccc34)CC1)C2=O [Example 101, 5-{2-[4-(1,2-Benzoisoxazol-3-yl)piperidin-1-yl]ethyl}-1-methyl-5,6,7,8-tetrahydroimidazo[4,5-c]azepin-4(1H)-one]",–
<0.05,–,–,–,O=C1c2cccnc2CCN1CCN1CCC(c2noc3ccccc23)CC1 [Example 128],–
